This is an account of results in PubChem BioAssay (NCI).

“And” between values parts separate entries of the source, which are not always exact repeats. Identical values can stand only once.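 Growth conditions: 96-well plates. Treatment: test compound, 48 hours, 5 concentrations. Analysis: linear interpolation between bracketing concentrations; unreached endpoints set to highest concentration. The concentration for 50% growth inhibition is given as GI50. The concentration for full growth arrest is given as TGI.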

Common to all, as to experiment: NCI anticancer screen, dose series, 48 h
Assay [1] concerns IGROV1 ovarian.
Assay [2] relates to 786-0 renal.
The test system of assay [3] is ACHN renal.
In assay [4] the test system is BT-549 breast.
The subject of assay [5] is NCI-H23 lung.
The test system of assay [6] is LOX IMVI melanoma.
Assay [7] has as its system SK-MEL-28 melanoma.
In assay [8] the test system is NCI-H460 lung.
Assay [9] deals with SF-268 CNS.
Assay [10] deals with NCI-H522 lung.

In the case of `CC1(C)N=C(N)N=C(N)N1c1ccc(OCCCCOc2ccc(S(=O)(=O)F)cc2)c(Cl)c1`, the GI50 in assay [1] is 0.0602 µM; in assay [2], 0.355 µM; in [3], 1.68 µM; in [4], 1.32 µM; in [5], 0.115 µM; in [6] it was 0.0761 µM. Further, the GI50 in assay [7] is 0.559 µM; in assay [8], 0.0382 µM; in assay [9], 0.076 µM; in assay [10], 0.16 µM. The TGI was 21.8 µM in assay [1]; 18.9 µM in [2]; above 100 µM in assay [3]; 17.3 µM in [4]; 19.5 µM in assay [5]; 14.3 µM in assay [6]. Moreover, the TGI in [7] was found to be 28.8 µM; in [8], 11.8 µM; in assay [9] it was 16.4 µM; in assay [10], 16.2 µM.

For the molecule `NC(N)=N/N=C\c1cccc(OCc2ccccc2)c1`, the GI50 in assay [1] is 6.07 µM; in [2] it was 3.54 µM; in assay [3], 4.29 µM; in assay [4] it was 15 µM; in [5] it was 11.7 µM; in assay [6], 1.78 µM. The GI50 in assay [7] was 1.66 µM; in assay [8], 2.55 µM; in assay [9] it was 10.9 µM; in [10], 2.16 µM. Besides, the TGI in assay [1] amounted to 23.8 µM; in [2], 12.6 µM; in assay [3] it was 18.5 µM; in assay [4] it was 28.4 µM; in assay [5], 27.6 µM; in assay [6], 3.4 µM. Further, the TGI came to 3.41 µM in [7], 7.79 µM in assay [8], 25 µM in [9] and 11.3 µM in [10].

In the case of `O=C(c1ccco1)c1nc2cc(Cl)ccc2[n+]([O-])c1C(F)(F)F`, the GI50 in assay [1] is 54.5 µM; in [2], above 100 µM; in assay [3], 51.2 µM; in assay [4], 35.1 µM; in assay [5] it was 42 µM; in assay [6], 48.4 µM. The GI50 in [7] is 90.1 µM; in assay [8] it was 57 µM; in [9], 71.1 µM; in [10], 45.1 µM. Besides, the TGI in assay [1], in assay [2], in assay [3], in assay [4], in assay [5] and in [6] was above 100 µM each time. Also, the TGI in assay [7], in assay [8], in [9] and in assay [10] was above 100 µM each time.

For the molecule `O=C(Nc1cccc(Cl)c1)c1ccc(NC2=C(Cl)C(=O)N(Cc3ccccc3)C2=O)cc1`, the GI50 in [1] was 9.95 µM; in [2] it was 8.61 µM; in [3], 17.6 µM; in [4] it was 8.33 µM; in assay [5] it was 13.6 µM; in assay [6] it was 4.24 µM. In addition, the GI50 was 14.4 µM in assay [7], 9.11 µM in assay [8], 8.93 µM in assay [9] and 5.6 µM in assay [10]. For the same molecule, the TGI in assay [1] is above 62.6 µM; in assay [2], 19.7 µM; in [3] it was above 53.4 µM; in assay [4], 31.5 µM; in assay [5], 27 µM; in [6], 9.27 µM. The TGI in assay [7] was 31.7 µM; in assay [8] it was above 50.9 µM; in [9], 25.3 µM; in [10] it was above 44.6 µM.

Consider `C=C1C(=O)O[C@H]2[C@H]1CC/C(Cn1cc(-c3cc(C(F)(F)F)cc(C(F)(F)F)c3)nn1)=C\CC[C@@]1(C)O[C@@H]21`, for which the GI50 in [1] is 0.841 µM; in assay [2] it was 0.163 µM; in assay [3], 0.16 µM; in [4], 0.178 µM; in assay [5], 1.12 µM; in assay [6] it was 0.156 µM. For the same molecule, the GI50 is 0.465 µM in [7], 1.22 µM in assay [8], 1.08 µM in [9] and 0.122 µM in assay [10]. Besides, the TGI was 2.34 µM in assay [1]; 0.311 µM in [2]; 0.325 µM in [3]; 0.509 µM in assay [4]; 2.65 µM in assay [5]; 0.298 µM in assay [6]. In addition, the TGI is 1.65 µM in [7], 2.67 µM in assay [8], 2.49 µM in assay [9] and 0.27 µM in assay [10].

`N[C@@H]1CCCC[C@H]1N.O=C([O-])C(=O)[O-].[Pt+4]`: the GI50 in assay [1] was 1.85 µM; in assay [2] it was 0.752 µM; in assay [3], 2.15 µM; in assay [4] it was 12.3 µM; in [5], 1.76 µM; in [6], 1.13 µM. Also, the GI50 in [7] is 2.63 µM; in [8], 0.435 µM; in assay [9], 4.12 µM; in [10] it was 3.92 µM. In addition, the TGI was 35.9 µM in assay [1]; 42.9 µM in [2]; 45.3 µM in [3]; above 100 µM in [4]; 15.2 µM in assay [5]; above 100 µM in assay [6]. For the same molecule, the TGI in [7] was 24.2 µM; in [8], 38.3 µM; in [9] it was above 100 µM; in assay [10], 32.3 µM.

Take `C/C(=N/Nc1nc2ccccc2n1C)c1ccccn1`: the GI50 in assay [1] was 0.0327 µM; in [2] it was 0.0638 µM; in [3] it was 0.0136 µM; in assay [4], 0.223 µM; in assay [5] it was 0.0443 µM; in assay [6], 0.0514 µM. Moreover, the GI50 in assay [7] was 0.256 µM; in assay [8], 0.133 µM; in [9], 0.202 µM; in assay [10], 0.223 µM. Also, the TGI in assay [1] came to 12.5 µM; in assay [2], 10.6 µM; in [3], 7.7 µM; in [4] it was 25.5 µM; in assay [5] it was 19.3 µM; in assay [6], 11.4 µM. Also, the TGI was 29.1 µM in assay [7], 1.95 µM in [8], above 35.6 µM in assay [9] and 9.34 µM in [10].

On to `COc1ccc(/C=C\c2cc(OC)c(OC)c(OC)c2)cc1OC(=O)c1cccc(Cn2cc(CCOC(=O)[C@H](N)Cc3cn(C)c4ccccc34)nn2)c1`, for which the GI50 in assay [1] was below 0.0136 µM; in assay [2], 0.111 µM; in [3], below 0.01 µM; in [4], below 0.01 µM; in [5], below 0.01 µM; in [6], below 0.01 µM. For the same molecule, the GI50 was 2.69 µM in [7], below 0.01 µM in [8], 0.0296 µM in assay [9] and below 0.01 µM in assay [10]. The TGI is above 100 µM in assay [1]; above 100 µM in assay [2]; above 60.7 µM in assay [3]; 13.3 µM in [4]; 63.7 µM in assay [5]; 14.2 µM in assay [6]. Also, the TGI in [7] was 36.1 µM; in [8], above 42.8 µM; in [9] it was above 100 µM; in assay [10], 29.4 µM.

With `O=c1ccn(C2OC(CO/N=C/c3ccc(O)c(O)c3O)C(O)C2O)c(=O)[nH]1` (configuration not stated), the GI50 in assay [1] is 19.4 µM; in assay [2], above 100 µM; in assay [3], 31.8 µM; in assay [4], 68.4 µM; in assay [5], 22.6 µM; in assay [6], 16.1 µM. The GI50 in [7] is above 100 µM; in [8], above 100 µM; in assay [9] it was 26.5 µM; in [10], 50.6 µM. In addition, the TGI in [1] is 38.5 µM; in [2], above 100 µM; in assay [3] it was above 100 µM; in [4], above 100 µM; in assay [5], 49.6 µM; in assay [6], 32.2 µM. Also, the TGI in [7] is above 100 µM; in [8], above 100 µM; in assay [9], 85.6 µM; in assay [10], above 100 µM.

Turning to `CCOC(=O)c1[nH]c(Br)c(-c2ccc(Br)cc2)c1Br`, the GI50 in assay [1] is 0.851 µM; in [2], 0.535 µM; in assay [3], 0.929 µM; in assay [4], 8.52 µM; in assay [5] it was 2.48 µM; in assay [6], 0.641 µM. Moreover, the GI50 was 0.836 µM in assay [9] and 0.178 µM in assay [10]. For the same molecule, the TGI was 6.34 µM in assay [1]; 1.92 µM and 2.72 µM in assay [2]; 3.63 µM and 8.45 µM in [3]; 6.94 µM and 14.3 µM in [5]; 5.29 µM and 12.4 µM in assay [6]; 22.1 µM in assay [7]. In addition, the TGI in assay [8] is above 100 µM; in assay [9] it was 34.8 µM; in [10], 3.42 µM and 0.52 µM.

As for `Nc1ncnc2c1nc(Cl)n2C1OC2COP(=O)(O)OC2C1O` (configuration not stated), the TGI in assay [1], in assay [2], in assay [3], in [4], in assay [5] and in [6] was above 300 µM in each case. Moreover, the TGI in assay [7], in assay [8], in assay [9] and in assay [10] was above 300 µM each time.
